Experimental data reported in patent US7476676B2, “Methods for increasing bone formation using inhibitors of glycogen synthase kinase-3β” (Roche Palo Alto LLC, priority 2002, dated 2009).
Like-named read-outs stand apart in the source and are kept apart here. Values belong to the compound of their own block, whether it stands above or below them.

Tests used:
[1] = biological target: T1, truncated form of recombinant rabbit GSK-3β enzyme (Oryctolagus cuniculus, UniProt G1T8E2); test: Inhibition of Glycogen Synthase Kinase-3β in vitro assay; assay type: biochemical
T1 construct: The construct was cloned in pGEX-3X vector; fused on or other part: GST at the N-terminus (pGEX-3X vector, purified on glutathione sepharose 4B)
Method: The in vitro GSK-3β inhibitory activity of compounds of this invention was determined with a truncated form of recombinant rabbit GSK-3β enzyme.
The construct was cloned in pGEX-3X vector according to the procedure described in Wang, Q. M. et al., J. Biol. Chem. 269, 14566-14574 (1994). Ten amino acids at the N-terminus were deleted to obtain constitutively active GSK-3β ((see Murai H. et al., FEBS Lett. 392,153-60, (1996)). GSK-3β was expressed in BL21 DE3 cells. The cells were grown at 37° C. until they reached mid log phase and then induced with isopropyl-beta-(D)-thiogalactopyranoside (final concentration 0.4 mM) at 30° C. for 2 h. The cells were homogenized and the cell extract was loaded on a glutathione sepharose 4B column. GSK-3β was eluted with glutathione buffer (50 mM Tris pH 8 and 10 mM reduced glutathione). The eluate was collected in 3 minute fractions and assayed for GSK-3β content on a 10% SDS PAGE (polyacrylamide gel electrophoresis). Fractions above 20% peak height were pooled, aliquoted, and stored at −80° C. until used.
ATP (1 μCi), and 2 μl of compounds of this invention in DMSO (various concentrations). 15 μl of GSK-3β (various concentrations) was added and the reaction mixture was incubated at 30° C. for 1 h. The reaction was stopped by transferring 25 μl of the reaction mixture to a phosphocellulose plate containing 130 μl of 1.85% phosphoric acid. The free radionucleotides in the membrane were washed off under vacuum with 1.85% phosphoric acid (5 times). After the last wash, the plate was transferred to an adoptor plate and 50 μl of scintillation cocktail (Microscint-20, Packard, cat. #20-133) was added to each well and the amount of radioactivity was counted in a top counter.

[2] = test system: Ovalbumin-sensitized Brown-Norway rats; test: Study GSK8 - bone formation in rats treated with Compound II-3; assay type: in vivo, rat; details: twice daily oral gavage Days 6-8 and 13-23, liposome formulation
Method: Ovalbumin-sensitized Brown-Norway rats were used. They were sensitized i.p. with 100 μg of OA (ovalbumin) in 0.2 ml alum once every week for three weeks (Day 0, 7 and 14). Seven days after the final sensitization (Day 21), rats were challenged with 1% OA for 45 minutes and euthanized 72 hrs later (day 24). Compound II-3 was given twice daily by oral gavage on Days 6-8 and Days 13-23. Compound was prepared as a liposome formulation—8 mg/ml liposome solution in a liposome composition of 1.44 grams of compound and 54 grams of L-alpha-phosphatidylcholine in 160 ml of sterile water for injection.
Femur samples were decalcified in 10% formic acid, embedded in paraffin, sectioned at five micron thickness and stained with hematoxylin and eosin.

[3] = test system: Male Wistar rats; test: Study MT021 - bone formation in rats with Compound II-9; assay type: in vivo, rat
Method: Compound was formulated as a solution in 10% w/v Solutol. Male Wistar rats were dosed by oral gavage, once per day for 14 days at 25, 75 or 150 mg/kg/day and compared to vehicle control (10% Solutol, 10 ml/kg/day). Complete necroscopies were done and the tissues preserved in 10% formalin. Femur, sternum and vertabra were processed and analyzed as described in Example 3.

[4] = test system: osteopenic rat model; test: Bone anabolism in the rat (osteopenic rat model; bone mineral density, serum and urine calcium); assay type: in vivo
Method: . Three month old rats are ovariectomized (Ovx) and administered either bovine parathyroid hormone (Amino Acids^1-34) (bPTH in Table) or one of the compounds of the present invention once a day by mouth starting at least 4 weeks post-ovariectomy and continuing until final sacrifice after 3 weeks of daily treatment. Control groups, both sham (rats that were not ovariectomized) and Ovx, received vehicle only. Bovine parathyroid hormone, bPTH, was tested at 40 ug/kg (optimal dose) as an internal positive control for anabolic activity. […] Blood and urine samples were collected at 2-3 weeks after initiation of treatment and the amount of calcium in the serum and urine was determined.
The bone mineral density of the right femur was determined using the High Resolution Software on a QDR-4500W Bone Densitometer™ (Hologic, Waltham, Mass.). The animals were scanned by placing them on a plexiglass block in a supine position such that the right leg was perpendicular to the main body and the tibia was perpendicular to the femur. The increase in the bone mineral density and the amount of calcium in the urine and the serum for the compounds are given in the table below.

[5] = Ovx rats, 30 mg/kg/day by mouth
[6] = Sham (intact) rats, 30 mg/kg/day by mouth
[7] = Ovx rats, 0.04 mg/kg/day, Compound X study
[8] = Ovx rats, 0.04 mg/kg/day, III-2 Ovx study
[9] = Sham (intact) rats, 0.04 mg/kg/day

T1 sequence (G1T8E2 1-432): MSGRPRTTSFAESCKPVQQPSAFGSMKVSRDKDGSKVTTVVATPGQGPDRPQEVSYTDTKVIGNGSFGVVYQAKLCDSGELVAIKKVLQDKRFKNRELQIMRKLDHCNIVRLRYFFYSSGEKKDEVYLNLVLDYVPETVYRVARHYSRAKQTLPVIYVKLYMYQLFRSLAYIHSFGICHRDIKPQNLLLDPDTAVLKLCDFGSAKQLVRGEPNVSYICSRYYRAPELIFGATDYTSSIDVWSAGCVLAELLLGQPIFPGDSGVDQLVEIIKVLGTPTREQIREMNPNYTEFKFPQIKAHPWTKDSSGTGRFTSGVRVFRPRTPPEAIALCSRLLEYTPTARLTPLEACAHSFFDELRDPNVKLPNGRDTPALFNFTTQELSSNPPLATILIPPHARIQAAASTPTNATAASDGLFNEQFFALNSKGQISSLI

Compound: Cn1cc(C2=C(c3cccc(NCCCO[Si](C)(C)C(C)(C)C)c3)C(=O)NC2=O)c2ccccc21
- melting point: 58 to 65 °C

Compound: Cn1cc(C2=C(c3ccccc3OCC(O)CO)C(=O)NC2=O)c2ccccc21 (stereo not shown) [Compound I-1]
- melting point: 245 to 247.1 °C

Compound: Nc1nc(NCCNc2ncc(-c3ncc[nH]3)c(-c3ccc(Cl)cc3Cl)n2)ccc1[N+](=O)[O-] [Compound X, N^6-{2-[4-(2,4-dichloro-phenyl)-5-(1H-imidazol-2-yl)-pyrimidin-2-ylamino]-ethyl}-3-nitro-pyridine-2,6-diamine, reference compound]
- IC50 ([1]; GSK-3β assay of Biological Example 1): 1.7 nM

Compound: Cl.Cn1cc(C2=C(c3cccc(NCC(O)CO)c3)C(=O)NC2=O)c2cc(F)ccc21 (stereo not shown) [III-2]
- LUMBAR SPINE % 3 wk BMD Change [4, 5]: 7.9 ± 1.8%
- WHOLE FEMUR % 3 wk BMD Change [4, 5]: 11.6 ± 0.9%
- LUMBAR SPINE % 3 wk BMD Change [4, 6]: 9.5 ± 1.8%
- WHOLE FEMUR % 3 wk BMD Change [4, 6]: 13.1 ± 1.3%

Compound: bPTH: bovine parathyroid hormone (Amino Acids 1-34), internal positive control for anabolic activity
- LUMBAR SPINE % 3 wk BMD Change [4, 7]: 8.6 ± 1.8%
- WHOLE FEMUR % 3 wk BMD Change [4, 7]: 7.0 ± 1.1%
- LUMBAR SPINE % 3 wk BMD Change [4, 8]: 12.2 ± 1.5%
- WHOLE FEMUR % 3 wk BMD Change [4, 8]: 16.6 ± 0.9%
- LUMBAR SPINE % 3 wk BMD Change [4, 9]: 15.7 ± 0.8%
- WHOLE FEMUR % 3 wk BMD Change [4, 9]: 11.7 ± 1.0%

More lines, main results first:

- IC50 [1]: 3.2 nM
- melting point: 177.7 to 178 °C
Compound: Cn1cc(C2=C(c3cccc(OC[C@H](O)CO)c3)C(=O)NC2=O)c2ccccc21 [II-3]
- cancellous bone under the growth plate of the femur (light microscopy) [2]: moderate increases in cancellous bone

- melting point: 197.7 to 199 °C
Compound: Cn1cc(C2=C(c3cccc(OCCN4CCOCC4)c3)C(=O)NC2=O)c2ccccc21 [II-4]

- IC50 [1]: 1.5 nM
- melting point: 160 to 163.5 °C
Compound: Cl.Cn1cc(C2=C(c3cccc(NCC(O)CO)c3)C(=O)NC2=O)c2ccccc21 (stereo not shown) [II-9]
- animals with increased cancellous bone ([3]; 25 mg/kg group, oral, 14 days): only one animal
- rats with increased new bone formation ([3]; 150 mg/kg group, oral, 14 days): Five out of six
- cancellous bone (femur, sternum, vertebra) ([3]; oral gavage once per day for 14 days at 25, 75 or 150 mg/kg/day): Increased cancellous bone was observed in all groups
